Assay results reported in patent US8765688B2, “Anti-dandruff compositions containing peptides” (priority 2007, dated 2014).
Numbered stars: 1 amine (or outer) side, 2 acyl side, 3 side chain; on linkers, the order of the positions; unused ones are H or OH. Bridge positions count the residues as written; N and C are the ends. Square brackets hold non-standard residues; d marks the D form. Ends that are not written are not given here. Peptide text beside a SMILES is read from it. * marks the point of attachment. Orn(4R-OH,5R-OH) = O=C([C@H](C[C@@H](O)[C@@H](O)N[*:3])N[*:1])[*:2]; hTyr(3S-OH,4S-OH) = N[C@H](C(=O)O)[C@H](O)[C@@H](O)c1ccc(O)cc1; Pro(3S-OH,4S-Me) = C[C@H]1CN[C@H](C(=O)O)[C@H]1O; Benzoyl(4-octyloxy) = CCCCCCCCOc1ccc(C(=O)*)cc1; Hyp = O=C(O)[C@@H]1C[C@@H](O)CN1

Columns and labels:
[1] = test system: Malassezia furfur; assay: Inhibition of Malassezia furfur growth test (optical density and colony-forming units), Examples 1 and 2; assay type: cell-based; conditions: solution in DMSO, 25 μM; for colony-forming units: 10 μl plated out
Description: Growth medium: M472-Pitysporum medium according to DSMZ
(§1) The components were sterilized at 121° C., 1 bar superatmospheric pressure for 20 minutes.
2 g/l of olive oil were sterilized by filtration and, after autoclaving, added to the other components.
(§2) Since it was a two-phase medium, the complete medium was treated with sonication in order to enlarge the phase boundary.
For agar plates, if appropriate, […] of agar agar were added to the medium.
The growth test was carried out as follows: A shake flask with M472-Pitysporum medium was inoculated with M. furfur and incubated with shaking overnight at 30° C. and 200 rpm.
A 96-well microtiter plate was filled with in each case 100 μl of M472-Pitysporum medium and inoculated with M. furfur suspension of the overnight culture. The M. furfur suspension was adjusted at the start of the experiment to an optical density, measured at 620 nm, of 0.02. The concentrates of the inhibitor solutions were 1 mM in water or DMSO.
(§3) The growth of the following batches was compared by measuring the optical density:
M. furfur suspension without the addition of an inhibitor.
This was to exclude that an inhibition is attributable merely to the effect of the DMSO, or a false positive result being observed.
M. furfur suspension and addition of an aqueous P18 solution with a final concentration of 25 μM.
M. furfur suspension and addition of a P18 solution in DMSO with a final concentration of 25 μM.
M. furfur suspension and addition of a zinc pyrithione (ZPT, Sigma-Aldrich) solution in DMSO with a final concentration of 25 μM.
M. furfur suspension and addition of a Ketoconazole (Sigma-Aldrich) solution in DMSO with a final concentration of 25 μM.
(§4) The microtiter plate was incubated with shaking at 30° C.
[…] The colony-forming units (CFU) were then determined by plating out 10 μl from each of the suspensions and, after incubation for 6 days, counting the colonies. The CFU was determined in order to exclude an influence of the two-phase medium and also the growth form of M. furfur on the optical density. […] The experiments were carried out at least in triple determinations and independently repeated.
For this, the procedure was as described in Example 1. 1 mM stock solutions of the fusion peptide P18, magainin 2 and cecropin A in DMSO were prepared. The final concentrations of the peptides in the growth experiments were 25 μM. The same amount of DMSO was likewise added to the suspension without inhibitor in order to exclude a growth-inhibiting effect of the DMSO.
The growth of the following mixtures was compared by measuring the optical density:
This was to exclude that an inhibition is attributable merely to the effect of the DMSO.
M. furfur suspension and addition of a magainin 2 solution in DMSO with a final concentration of 25 μM.
M. furfur suspension and addition of a cecropin A solution in DMSO with a final concentration of 25 μM.
M. furfur suspension and addition of a peptide P18 (SEQ ID NO3) solution in DMSO with a final concentration of 25 μM.

[2] = test system: Malassezia furfur; conditions: cited from earlier work; for growth inhibition of M. furfur (in words): 25 μM, Lopez-Garcia et al., 2006
[3] = test system: Candida albicans; conditions: cited from earlier work
[4] = test system: Malassezia furfur; assay: Growth inhibition of Malassezia furfur with equal concentrations (% by weight) of P18, Zincpyrithione, Climbazole and Ketoconazole, CFU; assay type: cell-based; conditions: 362 μM final conc., mean ± SD
Description: (§5) Growth medium: M472-Pityrosporum medium according to DSMZ
as §1
(§6) 2 g/L of olive oil (sterilized by filtration and, after autoclaving, added to the other components)
as §2
(§7) For agar plates, if appropriate, 150 g/L of agar agar were added to the medium.
(§8) The growth test was carried out as follows: A shake flask with M472-Pityrosporum medium was inoculated with M. furfur and incubated with shaking overnight at 30° C. and 200 rpm.
A 96-well microtiter plate was filled with in each case 100 μl of M472-Pityrosporum medium and inoculated with M. furfur suspension of the overnight culture. The M. furfur suspension was adjusted at the start of the experiment to an optical density, measured at 600 nm, of 0.02. The concentrates of the inhibitor solutions were 1 mM in DMSO for the peptide P18 and 10 mM in DMSO for Zincpyrithione, Ketoconazole and Climbazole. The DMSO final concentrations were maintained the same in all experiments. This means that a corresponding volume of DMSO was added to the mixture in the case of a higher concentration of Zincpyrithione, Ketoconazole or Climbazole concentrate in order to ensure comparability to the mixtures containing P18.
as §3
M. furfur suspension and addition of P18 solution with a final concentration of 50 μM (equal to 0.0115% (w/w))
M furfur suspension and addition of Zincpyrithione (ZPT) solution with a final concentration of 362 μM (comparison to the mixture containing 50 μM of the peptide P18)
M furfur suspension and addition of Ketoconazole solution with a final concentration of 216 μM (comparison to the mixture containing 50 μM of the peptide P18)
M furfur suspension and addition of Climbazole solution with a final concentration of 390 μM (comparison to the mixture containing 50 μM of the peptide P18)
as §4
After 24 hours of incubation, the colony-forming units (CFU) were determined by plating out 10 μl of medium from each of the suspensions on agar plates. After incubation for 6 days, the colonies on the plates were counted. The CFU was determined in order to exclude an influence of the two-phase medium and also the growth form of M. furfur on the optical density. The experiments were carried out in at least two independent experiments, each with double determination.

[5] = test system: Malassezia furfur; assay: Incubation times with P18 from 5 minutes to 1 hour, CFU of M. furfur, compared to Zincpyrithione; assay type: cell-based
Description: Since growth inhibition of M. furfur by the peptide P18 (P18 peptide sequence H-KWKLFKKIPKFLHLAKKF-NH2; SEQ ID NO: 3) had so far only been analyzed over incubation times of more than one hour, now the effect of the peptide P18 within the first minutes of incubation (5 minutes, 10 minutes and 20 minutes) up to the first hour after adding to the M. furfur overnight culture was tested and compared to the reference substance Zincpyrithione (Sigma Aldrich). For this, the peptide P18 and the reference substance Zincpyrithione were used in concentrations of 100 μM, 200 μM and 500 μM. The experiments were carried out as follows:
as §5, §1, §6, §2, §7, §8
A 96-well microtiter plate was filled with in each case 100 μl of M472-Pityrosporum medium and inoculated with M. furfur suspension of the overnight culture. The M. furfur suspension was adjusted at the start of the experiment to an optical density, measured at 600 nm, of 0.1.
The growth of the following batches was compared:
M. furfur suspension and addition of the peptide P18 with a final concentration of 100 μM, plating out after 5 minutes, 10 minutes, 20 minutes and 60 minutes
M. furfur suspension and addition of the peptide P18 with a final concentration of 200 μM plating out after 5 minutes, 10 minutes, 20 minutes and 60 minutes
M. furfur suspension and addition of the peptide P18 with a final concentration of 500 μM plating out after 5 minutes, 10 minutes, 20 minutes and 60 minutes
M. furfur suspension and addition of Zincpyrithione with a final concentration of 100 μM plating out after 5 minutes, 10 minutes, 20 minutes and 60 minutes
M. furfur suspension and addition of Zincpyrithione with a final concentration of 200 μM plating out after 5 minutes, 10 minutes, 20 minutes and 60 minutes
M. furfur suspension and addition of Zincpyrithione with a final concentration of 500 μM plating out after 5 minutes, 10 minutes, 20 minutes and 60 minutes
as §4
After the incubation times indicated above, the colony-forming units (CFU) were determined by plating out 50 μl from each of the suspensions and, after incubation for 6 days, counting the colonies. The CFU was determined in order to exclude an influence of the two-phase medium and also the growth form of M. furfur on the optical density. The experiments were independently repeated.

Work on `CC(=O)N1CCN(c2ccc(OCC3COC(Cn4ccnc4)(c4ccc(Cl)cc4Cl)O3)cc2)CC1` (stereo not drawn) [Ketoconazole, reference compound] yielded an optical density ([1]; incubation time 0 h) of 0, an optical density ([1]; incubation time 16 h) of 0 and a colony-forming units ([1]; incubation time 16 h) of 80. The optical density ([1]; incubation time 24 h) was 0.004, the colony-forming units ([1]; incubation time 24 h) was 22 and the optical density ([1]; incubation time 40 h) was 0.013. It also gave a colony-forming units ([1]; incubation time 40 h) of 90.

For `CCCCCCCCOc1ccc(C(=O)N[C@H]2C[C@@H](O)[C@@H](O)NC(=O)[C@@H]3[C@@H](O)[C@@H](C)CN3C(=O)[C@H]([C@@H](C)O)NC(=O)[C@H]([C@H](O)[C@@H](O)c3ccc(O)cc3)NC(=O)[C@@H]3C[C@@H](O)CN3C(=O)[C@H]([C@@H](C)O)NC2=O)cc1` [cilofungin] ({Benzoyl(4-octyloxy)}-[Orn(4R-OH,5R-OH)]T[Hyp][hTyr(3S-OH,4S-OH)]T[Pro(3S-OH,4S-Me)]; lactam 1-C), the “inhibition of M. furfur (in words)” value ([2]; 0.62 μg/ml, Hanson et al. 1989) is given as “not inhibited” and the “C. albicans strains that did not grow” value ([3]; cilofungin concentration of 0.62 μg/ml, Hanson et al. 1989) is given as 76%.

For “Cecropin P1 (SWLSKTAKKLENSAKKRISEGIAIAIQGGPR; Cecropin-P1; UniProt P14661 14-44, looked up)”, the “growth inhibition of M. furfur (in words)” value [2] is listed as “moderate antifungal effect”.

In the case of basic phytosphingosines, the “concentration inhibiting M. furfur” value ([2]; Nenoff et al., 2002) is given as 6250 µg/mL.

With “cecropin A (KWKLFKKIEKVGQNIRDGIIKAGPAVAVVGQATQIAK; ends and bridges not checked; UniProt P01507 27-63, looked up) [peptide of 37 amino acids from Hyalophora cecropia, reference compound]” the CFU ([1]; incubation time 64 h) was >5000 and the CFU ([1]; incubation time 72 h) was >5000.

In the case of magainin 2 [reference compound], the “growth inhibition of M. furfur (in words)” value [2] is listed as “comparably better effect”, the CFU ([1]; incubation time 64 h) is listed as >10 000 and the CFU ([1]; incubation time 72 h) is listed as >10 000.

For phytosphingosine salts, the “sensitivity of M. furfur (in words)” value ([2]; Nenoff et al., 2002) is listed as “appeared to be resistant”.

In the case of phytosphingosines, the “concentrations inhibiting Candida albicans” value ([3]; Nenoff et al., 2002) is listed as 152 to 269 µg/mL.

For “zinc pyrithione [ZPT, reference compound]”, the optical density ([1]; incubation time 0 h) was 0, the optical density ([1]; incubation time 16 h) was 0 and the colony-forming units ([1]; incubation time 16 h) was 42. It also gave an optical density ([1]; incubation time 24 h) of 0, a colony-forming units ([1]; incubation time 24 h) of 22 and an optical density ([1]; incubation time 40 h) of 0. It also gave a colony-forming units ([1]; incubation time 40 h) of 28, a colony-forming units ([4]; incubation time 24 h) of 60 ± 40 and a colony-forming units ([4]; incubation time 40 h) of 26 ± 7. The “colony-forming units after the indicated incubation time” value ([5]; final concentration 100 μM, 5 minutes) was >1000, the “colony-forming units after the indicated incubation time” value ([5]; final concentration 100 μM, 10 minutes) was >1000 and the “colony-forming units after the indicated incubation time” value ([5]; final concentration 100 μM, 20 minutes) was >1000. The “colony-forming units after the indicated incubation time” value ([5]; final concentration 100 μM, 60 minutes) was >1000, the “colony-forming units after the indicated incubation time” value ([5]; final concentration 200 μM, 5 minutes) was >1000 and the “colony-forming units after the indicated incubation time” value ([5]; final concentration 200 μM, 10 minutes) was >1000. For the same compound, the “colony-forming units after the indicated incubation time” value ([5]; final concentration 200 μM, 20 minutes) was >1000, the “colony-forming units after the indicated incubation time” value ([5]; final concentration 200 μM, 60 minutes) was >1000 and the “colony-forming units after the indicated incubation time” value ([5]; final concentration 500 μM, 5 minutes) was >1000. For the same compound, the “colony-forming units after the indicated incubation time” value ([5]; final concentration 500 μM, 10 minutes) was >1000, the “colony-forming units after the indicated incubation time” value ([5]; final concentration 500 μM, 20 minutes) was >1000 and the “colony-forming units after the indicated incubation time” value ([5]; final concentration 500 μM, 60 minutes) was >1000.
